≈ marks a conversion by molar mass, not a printed value.
Key:
[1] = tested on: Mycobacterium tuberculosis; assay: Antitubercular activity against Mycobacterium tuberculosis mc2 6230 after 7 days by broth microdilution assay; format: functional; conditions: mc2 6230, 168 h
J774 = assay: Cytotoxicity against mouse J774 cells assessed as decrease in cell viability after 24 hrs by resazurin based assay; conditions: J774, 24 h
[2] = Selectivity index, ratio of IC50 for mouse J774 cells to MIC50 for Mycobacterium tuberculosis mc2 6230; format: toxicity; conditions: read-out: Selectivity Index

Row | Structure (SMILES) | MIC50 [1] [µg/mL] | IC50 (J774) [µg/mL] | selectivity ratio [2]
1 | Cc1ncc([N+](=O)[O-])n1CCCCCBr | 13.3 (≈ 48.2 µM) | 83 (≈ 301 µM) | 6.2
2 | Cc1ncc([N+](=O)[O-])n1CCCCN1CCN(c2ccnc3cc(Cl)ccc23)CC1 | 2.2 (≈ 5.13 µM) | > 100 | > 45.3
3 | Cc1ncc([N+](=O)[O-])n1CCCCCN1CCN(c2ccnc3cc(Cl)ccc23)CC1 | 5.2 (≈ 11.7 µM) | 28.9 (≈ 65.2 µM) | 5.6
4 | Cc1ncc([N+](=O)[O-])n1CCCCCN1CCOCC1 | > 100 | > 100 | –
5 | Cc1ncc([N+](=O)[O-])n1CCCCCN1CCCC1 | 12.3 (≈ 46.2 µM) | > 100 | > 8.1
6 | Cc1ncc([N+](=O)[O-])n1CCCCBr | 17.7 (≈ 67.5 µM) | 61 (≈ 233 µM) | 3.4
7 | Cc1ncc([N+](=O)[O-])n1CCCN1CCCCC1 | > 100 | > 100 | –
8 | Cc1ncc([N+](=O)[O-])n1CCCCN1CCCC1 | 12.6 (≈ 49.9 µM) | > 100 | > 8
9 | Cc1ncc([N+](=O)[O-])n1CCCN1CCN(c2ccnc3cc(Cl)ccc23)CC1 | 3.8 (≈ 9.16 µM) | > 100 | > 26.3
10 | NNC(=O)c1ccncc1 [ISONIAZID] | 0.019 (≈ 0.139 µM) | – | –
11 | Cc1ncc([N+](=O)[O-])n1CCCCN1CCCCC1 | 19.3 (≈ 72.5 µM) | > 100 | > 5.2
12 | Cc1ncc([N+](=O)[O-])n1CCCCCCBr | 4.9 (≈ 16.9 µM) | 69.9 (≈ 241 µM) | 14.1
13 | Cc1ncc([N+](=O)[O-])n1CCCCN1CCOCC1 | 23.1 (≈ 86.1 µM) | > 100 | > 4.3
14 | Clc1ccc2c(N3CCNCC3)ccnc2c1 | 92 (≈ 371 µM) | – | –
15 | Cc1ncc([N+](=O)[O-])n1CCCN1CCOCC1 | 18 (≈ 70.8 µM) | > 100 | > 5.5
16 | Cc1ncc([N+](=O)[O-])n1CCCCCCN1CCN(c2ccnc3cc(Cl)ccc23)CC1 | 1.2 (≈ 2.63 µM) | < 0.8 | < 0.66
17 | Cc1ncc([N+](=O)[O-])n1CCCCCN1CCCCC1 | 49 (≈ 175 µM) | > 100 | > 2
18 | Cc1ncc([N+](=O)[O-])n1CCCN1CCCC1 | 19.3 (≈ 81 µM) | > 100 | > 5.2
19 | Cc1ncc([N+](=O)[O-])n1CCCBr | 5.3 (≈ 21.4 µM) | 54.8 (≈ 221 µM) | 10.3

From ChEMBL document CHEMBL4219157, “Alkylated/aminated nitroimidazoles and nitroimidazole-7-chloroquinoline conjugates: Synthesis and anti-mycobacterial evaluation” (Bioorg Med Chem Lett, 2018)
